Measurements: patent publication US20150366890A1, “COMPOSITIONS AND METHODS FOR TREATING FUNGAL INFECTIONS” (TRUSTEES OF BOSTON UNIVERSITY, priority 2013, published 2015)
Where two headings read alike, the source gives them in different places.

System: S. cerevisiae wildtype and deletion strains
Type: cell-based

Q: What does the source list for C[C@@H]1[C@H](O)[C@@H](C)/C=C/C=C/C=C/C=C/C=C/C=C/C=C/[C@H](O[C@@H]2O[C@H](C)[C@@H](O)[C@H](N)[C@@H]2O)C[C@@H]2O[C@](O)(C[C@@H](O)C[C@@H](O)[C@H](O)CC[C@@H](O)C[C@@H](O)CC(=O)O[C@H]1C)C[C@H](O)[C@H]2C(=O)O [AMB, amphotericin B]?
A: additive resistance on deleting the remaining citrate synthases in the cit3 background (S. cerevisiae CIT1/CIT2 deletions in cit3 background): additive resistance; CFU (24-well colony forming assay), AF susceptibility vs wildtype (S. cerevisiae PAB101, WT): Normal; CFU (24-well colony forming assay), AF susceptibility vs wildtype (S. cerevisiae PAB102, HSP104 deletion): Normal; CFU (24-well colony forming assay), AF susceptibility vs wildtype (S. cerevisiae PAB103, SDH2 deletion): Resistant (″Resistant″ or ″Sensitive″ indicate at least a 5-fold CFU difference from wildtype at the final time point); CFU (24-well colony forming assay), AF susceptibility vs wildtype (S. cerevisiae PAB104, FRE8 deletion): Resistant (″Resistant″ or ″Sensitive″ indicate at least a 5-fold CFU difference from wildtype at the final time point); CFU (24-well colony forming assay), AF susceptibility vs wildtype (S. cerevisiae PAB105, CHA4 deletion): Resistant (″Resistant″ or ″Sensitive″ indicate at least a 5-fold CFU difference from wildtype at the final time point); CFU (24-well colony forming assay), AF susceptibility vs wildtype (S. cerevisiae PAB106, FMS1 deletion): Resistant (″Resistant″ or ″Sensitive″ indicate at least a 5-fold CFU difference from wildtype at the final time point); CFU (24-well colony forming assay), AF susceptibility vs wildtype (S. cerevisiae PAB107, NDE1 deletion): Resistant (″Resistant″ or ″Sensitive″ indicate at least a 5-fold CFU difference from wildtype at the final time point); CFU (24-well colony forming assay), AF susceptibility vs wildtype (S. cerevisiae PAB108, ALD3 deletion): Normal; CFU (24-well colony forming assay), AF susceptibility vs wildtype (S. cerevisiae PAB112, MNE1 deletion): Resistant (″Resistant″ or ″Sensitive″ indicate at least a 5-fold CFU difference from wildtype at the final time point); CFU (24-well colony forming assay), AF susceptibility vs wildtype (S. cerevisiae PAB113, FUM1 deletion): Resistant (″Resistant″ or ″Sensitive″ indicate at least a 5-fold CFU difference from wildtype at the final time point); CFU (24-well colony forming assay), AF susceptibility vs wildtype (S. cerevisiae PAB114, TPK2 deletion): Resistant (″Resistant″ or ″Sensitive″ indicate at least a 5-fold CFU difference from wildtype at the final time point); CFU (24-well colony forming assay), AF susceptibility vs wildtype (S. cerevisiae PAB116, ISU1 deletion): Normal; CFU (24-well colony forming assay), AF susceptibility vs wildtype (S. cerevisiae PAB117, CYC7 deletion): Normal; CFU (24-well colony forming assay), AF susceptibility vs wildtype (S. cerevisiae PAB119, CIT2 deletion): Resistant (″Resistant″ or ″Sensitive″ indicate at least a 5-fold CFU difference from wildtype at the final time point); CFU (24-well colony forming assay), AF susceptibility vs wildtype (S. cerevisiae PAB120, HSP30 deletion): Normal; CFU (24-well colony forming assay), AF susceptibility vs wildtype (S. cerevisiae PAB121, SDH1 deletion): Resistant (″Resistant″ or ″Sensitive″ indicate at least a 5-fold CFU difference from wildtype at the final time point); CFU (24-well colony forming assay), AF susceptibility vs wildtype (S. cerevisiae PAB122, TPK3 deletion): Resistant (″Resistant″ or ″Sensitive″ indicate at least a 5-fold CFU difference from wildtype at the final time point); CFU (24-well colony forming assay), AF susceptibility vs wildtype (S. cerevisiae PAB123, ISU2 deletion): Normal; CFU (24-well colony forming assay), AF susceptibility vs wildtype (S. cerevisiae PAB124, TPK1 deletion): Resistant (″Resistant″ or ″Sensitive″ indicate at least a 5-fold CFU difference from wildtype at the final time point); CFU (24-well colony forming assay), AF susceptibility vs wildtype (S. cerevisiae PAB132, CIT3 deletion): Resistant (″Resistant″ or ″Sensitive″ indicate at least a 5-fold CFU difference from wildtype at the final time point); CFU (24-well colony forming assay), AF susceptibility vs wildtype (S. cerevisiae PAB135, NDI1 deletion): Resistant (″Resistant″ or ″Sensitive″ indicate at least a 5-fold CFU difference from wildtype at the final time point); CFU (24-well colony forming assay), AF susceptibility vs wildtype (S. cerevisiae PAB145, CIT1 deletion): Resistant (″Resistant″ or ″Sensitive″ indicate at least a 5-fold CFU difference from wildtype at the final time point); CFU (24-well colony forming assay), AF susceptibility vs wildtype (S. cerevisiae PAB149, YAK1 deletion): Sensitive (″Resistant″ or ″Sensitive″ indicate at least a 5-fold CFU difference from wildtype at the final time point); CFU (24-well colony forming assay), AF susceptibility vs wildtype (S. cerevisiae PAB153, SHO1 deletion): Sensitive (″Resistant″ or ″Sensitive″ indicate at least a 5-fold CFU difference from wildtype at the final time point); CFU (24-well colony forming assay), AF susceptibility vs wildtype (S. cerevisiae PAB155, FBP1 deletion): Sensitive (″Resistant″ or ″Sensitive″ indicate at least a 5-fold CFU difference from wildtype at the final time point); CFU (24-well colony forming assay), AF susceptibility vs wildtype (S. cerevisiae PAB158, MSN4 deletion): Normal; CFU (24-well colony forming assay), AF susceptibility vs wildtype (S. cerevisiae PAB161, MSN2 deletion): Normal; CFU (24-well colony forming assay), AF susceptibility vs wildtype (S. cerevisiae PAB162, YAP1 deletion): Normal; CFU (24-well colony forming assay), AF susceptibility vs wildtype (S. cerevisiae PAB163, CIN5 deletion): Normal; CFU (24-well colony forming assay), AF susceptibility vs wildtype (S. cerevisiae PAB164, Pde2 deletion): Normal; CFU (24-well colony forming assay), AF susceptibility vs wildtype (S. cerevisiae PAB165, USV1 deletion): Normal; CFU (24-well colony forming assay), AF susceptibility vs wildtype (S. cerevisiae PAB166, CAD1 deletion): Normal; CFU (24-well colony forming assay), AF susceptibility vs wildtype (S. cerevisiae PAB167, RIM101 deletion): Normal; CFU (24-well colony forming assay), AF susceptibility vs wildtype (S. cerevisiae PAB168, RAS1 deletion): Resistant (″Resistant″ or ″Sensitive″ indicate at least a 5-fold CFU difference from wildtype at the final time point); CFU (24-well colony forming assay), AF susceptibility vs wildtype (S. cerevisiae PAB169, HYR1 deletion): Resistant (″Resistant″ or ″Sensitive″ indicate at least a 5-fold CFU difference from wildtype at the final time point); CFU (24-well colony forming assay), AF susceptibility vs wildtype (S. cerevisiae PAB170, CRZ1 deletion): Normal; CFU (24-well colony forming assay), AF susceptibility vs wildtype (S. cerevisiae PAB171, RAS2 deletion): Resistant (″Resistant″ or ″Sensitive″ indicate at least a 5-fold CFU difference from wildtype at the final time point); CFU (24-well colony forming assay), AF susceptibility vs wildtype (S. cerevisiae PAB172, XBP1 deletion): Normal; CFU (24-well colony forming assay), AF susceptibility vs wildtype (S. cerevisiae PAB173, SRV2 deletion): Normal; CFU (24-well colony forming assay), AF susceptibility vs wildtype (S. cerevisiae PAB174, TPS3 deletion): Resistant (″Resistant″ or ″Sensitive″ indicate at least a 5-fold CFU difference from wildtype at the final time point); CFU (24-well colony forming assay), AF susceptibility vs wildtype (S. cerevisiae PAB175, TPS2 deletion): Sensitive (″Resistant″ or ″Sensitive″ indicate at least a 5-fold CFU difference from wildtype at the final time point); CFU (24-well colony forming assay), AF susceptibility vs wildtype (S. cerevisiae PAB177, SOD2 deletion): Normal; CFU (24-well colony forming assay), AF susceptibility vs wildtype (S. cerevisiae PAB178, CTA1 deletion): Normal; CFU (24-well colony forming assay), AF susceptibility vs wildtype (S. cerevisiae PAB179, CTT1 deletion): Normal; CFU (24-well colony forming assay), AF susceptibility vs wildtype (S. cerevisiae PAB180, MET1 deletion): Normal; CFU (24-well colony forming assay), AF susceptibility vs wildtype (S. cerevisiae PAB181, TVP18 deletion): Normal; CFU (24-well colony forming assay), AF susceptibility vs wildtype (S. cerevisiae PAB182, PML39 deletion): Normal; CFU (24-well colony forming assay), AF susceptibility vs wildtype (S. cerevisiae PAB183, VPS9 deletion): Normal; higher drug concentration required by citrate synthase triple mutant to achieve the sensitivity of the single mutants (S. cerevisiae cit1 cit2 cit3 triple mutant, 3 hours of drug exposure): more than 8 fold; reduction of killing at 3 hours by thiourea (S. cerevisiae, 50 mM thiourea for 30 minutes prior to the addition of AF drugs): ~15 fold
